Test results published in patent US8518710B2, “Photon reducing agents for fluorescence assays” (Life Technologies Corporation, priority 1997, dated 2013).

Test: Absorption maxima of dyes (Table 1)
Type: physicochemical

| Compound | Absorption maxima of dyes [nm] |
| --- | --- |
| O=C([O-])C1=NN(c2ccc(S(=O)(=O)[O-])cc2)C(=O)C1N=Nc1ccc(S(=O)(=O)[O-])cc1.[Na+].[Na+].[Na+] (centres unmarked) [Tartrazine] | 425 |
| CCN(CC)c1ccc(C(=C2C=CC(=[N+](CC)CC)C=C2)c2cc(O)c(S(=O)(=O)O)cc2S(=O)(=O)O)cc1 [Patent Blue] | 635 |
| Acid Red 37 | 513 |
| Acid Fuchsin | 546 |
| Cc1cc(-c2ccc(/N=N/c3c(S(=O)(=O)O)cc4cc(S(=O)(=O)O)cc(N)c4c3O)c(C)c2)ccc1/N=N/c1c(S(=O)(=O)O)cc2cc(S(=O)(=O)O)cc(N)c2c1O [Trypan Blue] | 607 |
